# Patent US10562912B2 (C&C Research Laboratories, priority 2013, dated 2020)
# How the values were obtained:
# Format in all cases: cell-based
# LNCaP = assay: Cell growth inhibition assay, prostate cancer cell line LNCaP (medium with 10 ng/mL IL-6); conditions: Homo sapiens, medium supplemented with 10 ng/mL of IL-6, 10,000 cells/well
# STAT3 = molecular target: T1, STAT3 (Homo sapiens, UniProt P40763); assay: STAT3 reporter gene assay (luciferase), LNCaP stable cell line (pSTAT3-TA-luc), IL-6 stimulation
# T1 construct: plasmid pSTAT3-TA-luc), which contains a stably operating STAT3 promoter; endogenous in cells
# T1 sequence (P40763 whole entry): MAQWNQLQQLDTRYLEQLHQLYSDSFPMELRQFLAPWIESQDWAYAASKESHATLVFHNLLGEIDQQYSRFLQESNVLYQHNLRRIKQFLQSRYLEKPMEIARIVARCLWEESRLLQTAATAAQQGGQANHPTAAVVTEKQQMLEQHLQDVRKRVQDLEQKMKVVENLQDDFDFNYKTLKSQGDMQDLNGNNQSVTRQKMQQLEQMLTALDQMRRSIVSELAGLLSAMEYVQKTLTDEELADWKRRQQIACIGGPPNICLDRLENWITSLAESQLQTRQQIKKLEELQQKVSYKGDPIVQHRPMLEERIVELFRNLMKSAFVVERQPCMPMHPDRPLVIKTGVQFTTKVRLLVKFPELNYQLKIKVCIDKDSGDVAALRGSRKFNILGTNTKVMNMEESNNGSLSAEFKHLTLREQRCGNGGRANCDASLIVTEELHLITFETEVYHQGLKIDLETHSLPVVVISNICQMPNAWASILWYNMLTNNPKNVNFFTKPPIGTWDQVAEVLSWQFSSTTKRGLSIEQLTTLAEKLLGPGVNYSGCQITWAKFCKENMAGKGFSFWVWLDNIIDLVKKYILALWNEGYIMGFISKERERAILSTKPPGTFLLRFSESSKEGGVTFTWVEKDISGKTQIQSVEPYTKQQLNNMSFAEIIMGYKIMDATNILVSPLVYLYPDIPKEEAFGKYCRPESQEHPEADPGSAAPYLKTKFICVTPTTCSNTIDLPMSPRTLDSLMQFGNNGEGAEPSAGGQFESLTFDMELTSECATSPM
# Outline: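 LNCaP cells stably carrying pSTAT3-TA-luc, in RPMI1640 with 3% DCC-FBS, were treated with compound and then stimulated with 10 ng/mL IL-6 for 24–48 h at 37 °C. Luciferase activity was measured in lysates. A parallel plate measured viability by CellTiter-Glo, with stimulated 0.1% DMSO wells as the positive control.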
# DU-145 = assay: Cell growth inhibition assay, prostate cancer cell line DU-145; conditions: Homo sapiens, DU-145 prostate cancer cell line
# Outline: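 Cancer cells, counted and seeded at 3,000 (DU-145, HCT116) or 5,000 (SW626) cells/well, received graded compound concentrations. Plates incubated 72–96 h at 37° C. with 5% CO2 were then assayed with CellTiter-Glo.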
Structure (SMILES),IC50 (LNCaP) [µM],IC50 (STAT3) [µM],IC50 (DU-145) [µM]
"CC(C)(c1cc(Cl)cc(NC(=O)c2cc3cc(NS(C)(=O)=O)ccc3s2)c1)c1cc(OC2COC2)cc(OC(F)(F)F)c1 [Example 76, N-(3-chloro-5-(2-(3-(oxetan-3-yloxy)-5-(trifluoromethoxy)phenyl)propan-2-yl)phenyl)-5-(methylsulfonamido)benzo[b]thiophene-2-carboxamide]",0.23,3,0.34
"CC(C)Oc1cc(Oc2cc(Cl)cc(NC(=O)c3cc4cc(NS(C)(=O)=O)ccc4s3)c2)cc(OC(F)(F)F)c1 [Example 452, N-(3-chloro-5-(3-isopropoxy-5-(trifluoromethoxy)phenoxy)phenyl)-5-(methylsulfonamido)benzo[b]thiophene-2-carboxamide]",0.33,0.079,0.027
"CC(C)Oc1cc(CN2CCN(C(=O)N(C)C)CC2)cc(C(C)(C)c2cc(Cl)cc(NC(=O)c3cc4cc(NS(C)(=O)=O)ccc4s3)c2)c1 [Example 133, 4-(3-(2-(3-chloro-5-(5-(methylsulfonamido)benzo[b]thiophene-2-carboxamido)phenyl)propan-2-yl)-5-isopropoxybenzyl)-N,N-dimethylpiperazine-1-carboxamide]",0.7,0.15,0.22
"Cn1nccc1-c1ccc(C(C)(C)c2cc(Cl)cc(NC(=O)c3cc4cc(NS(C)(=O)=O)ccc4s3)c2)cc1 [Example 159, N-(3-chloro-5-(2-(4-(1-methyl-1H-pyrazol-5-yl)phenyl)propan-2-yl)phenyl)-5-(methylsulfonamido)benzo[b]thiophene-2-carboxamide]",0.16,0.31,0.14
"CC(C)Oc1cc(CN2CCC3(CC2)COC3)cc(C(C)(C)c2cc(Cl)cc(NC(=O)c3cc4cc(NS(C)(=O)=O)ccc4s3)c2)c1 [Example 134, N-(3-(2-(3-((2-oxa-7-azaspiro[3,5]nonan-7-yl)methyl)-5-isopropoxyphenyl)propan-2-yl)-5-chlorophenyl)-5-(methylsulfonamido)benzo[b]thiophene-2-carboxamide]",0.84,0.27,0.16
"CC(C)Oc1cc(OC(F)(F)F)cc(C(C)(C)c2cc(Cl)cc(NC(=O)c3cc4cc(OP(=O)(O)O)ccc4s3)c2)c1 [Example 193, 2-((3-chloro-5-(2-(3-isopropoxy-5-(trifluoromethoxy)phenyl)propan-2-yl)phenyl)carbamoyl)benzo[b]thiophen-5-yl dihydrogen phosphate]",0.99,0.38,0.39
"CC(C)(c1ccc(Cl)cc1)c1cc(Cl)cc(NC(=O)c2cc3cc(Cl)c(NS(C)(=O)=O)cc3s2)c1 [Example 184, 5-chloro-N-(3-chloro-5-(2-(4-chlorophenyl)propan-2-yl)phenyl)-6-(methylsulfonamido)benzo[b]thiophene-2-carboxamide]",0.35,0.042,0.04
"CS(=O)(=O)Nc1ccc2sc(C(=O)Nc3cc(Cl)cc(-c4cncc(Cl)n4)c3)cc2c1 [Example 339, N-(3-chloro-5-(6-chloropyrazin-2-yl)phenyl)-5-(methylsulfonamido)benzo[b]thiophene-2-carboxamide]",0.56,0.76,0.31
"Cn1cccc1-c1cc(Cl)cc(NC(=O)c2cc3cc(NS(C)(=O)=O)ccc3s2)c1 [Example 334, N-(3-chloro-5-(1-methyl-1H-pyrrol-2-yl)phenyl)-5-(methylsulfonamido)benzo[b]thiophene-2-carboxamide]",0.14,0.096,0.059
"CS(=O)(=O)Nc1cc2sc(C(=O)Nc3cc(Cl)cc(Oc4ccc(Cl)cc4)c3)cc2cc1Cl [Example 485, 5-chloro-N-(3-chloro-5-(4-chlorophenoxy)phenyl)-6-(methylsulfonamido)benzo[b]thiophene-2-carboxamide]",> 1.1,0.129,0.38
"Cn1cncc1-c1cc(Cl)cc(NC(=O)c2cc3cc(NS(C)(=O)=O)ccc3s2)c1 [Example 340, N-(3-chloro-5-(1-methyl-1H-imidazol-5-yl)phenyl)-5-(methylsulfonamido)benzo[b]thiophene-2-carboxamide]",> 1.1,> 10,> 1.1
"CCOc1cc(OC(F)(F)F)cc(C(C)(C)c2cc(Br)cc(NC(=O)c3cc4nc(NS(C)(=O)=O)ccc4s3)c2)c1 [Example 60, N-(3-bromo-5-(2-(3-ethoxy-5-(trifluoromethoxy)phenyl)propan-2-yl)phenyl)-5-(methylsulfonamido)thieno[3,2-b]pyridine-2-carboxamide]",0.37,0.063,0.17
"CS(=O)(=O)Nc1ccc2sc(C(=O)Nc3cc(Cl)cc(Oc4cc(F)ccc4F)c3)cc2c1 [Example 448, N-(3-chloro-5-(2,5-difluorophenoxy)phenyl)-5-(methylsulfonamido)benzo[b]thiophene-2-carboxamide]",0.35,0.23,0.16

# Now those with a lower IC50 (LNCaP), led by results:
IC50 (LNCaP) [µM],IC50 (STAT3) [µM],IC50 (DU-145) [µM],Structure (SMILES)
0.015,0.016,0.004,"CS(=O)(=O)Nc1cc2cc(C(=O)Nc3cc(Cl)cc(-c4ccc(F)cc4F)c3)sc2cc1Cl [Example 333, 6-chloro-N-(5-chloro-2′,4′-difluoro-[1,1′-biphenyl]-3-yl)-5-(methylsulfonamido)benzo[b]thiophene-2-carboxamide]"
0.1,0.11,0.042,"CCn1cccc1C(C)(C)c1cc(Cl)cc(NC(=O)c2cc3cc(NS(C)(=O)=O)ccc3s2)c1 [Example 187, N-(3-chloro-5-(2-(1-ethyl-1H-pyrrol-2-yl)propan-2-yl)phenyl)-5-(methylsulfonamido)benzo[b]thiophene-2-carboxamide]"
0.012,0.009,0.026,"CN(c1ccc(Cl)cc1)c1cc(Cl)cc(NC(=O)c2cc3cc(NS(C)(=O)=O)c(Cl)cc3s2)c1 [Example 441, 6-chloro-N-(3-chloro-5-((4-chlorophenyl)(methyl)amino)phenyl)-5-(methylsulfonamido)benzo[b]thiophene-2-carboxamide]"
0.039,0.065,0.02,"CC(C)Oc1cc(OC(F)(F)F)cc(N(C)c2cc(Cl)cc(NC(=O)c3cc4cc(NS(C)(=O)=O)ccc4s3)c2)c1 [Example 443, N-(3-chloro-5-((3-isopropoxy-5-(trifluoromethoxy)phenyl)(methyl)amino)phenyl)-5-(methylsulfonamido)benzo[b]thiophene-2-carboxamide]"
0.072,0.007,0.007,"COCCS(=O)(=O)Nc1cc2cc(C(=O)Nc3cc(Cl)cc(C(C)(C)c4ccc(Cl)cc4)c3)sc2cc1Cl [Example 185, 6-chloro-N-(3-chloro-5-(2-(4-chlorophenyl)propan-2-yl)phenyl)-5-((2-methoxyethyl)sulfonamido)benzo[b]thiophene-2-carboxamide]"
0.039,0.014,0.008,"CC(C)(c1cc(Cl)cc(NC(=O)c2cc3cc(NS(C)(=O)=O)ccc3s2)c1)c1cc(OC2CC2)cc(OC(F)(F)F)c1 [Example 79, N-(3-chloro-5-(2-(3-cyclopropoxy-5-(trifluoromethoxy)phenyl)propan-2-yl)phenyl)-5-(methylsulfonamido)benzo[b]thiophene-2-carboxamide]"
0.11,0.13,0.07,"CC(C)(c1cc(Cl)cc(NC(=O)c2cc3cc(NS(C)(=O)=O)c(Cl)cc3s2)c1)N1CCCCC1 [Example 165, 6-chloro-N-(3-chloro-5-(2-(piperidin-1-yl)propan-2-yl)phenyl)-5-(methylsulfonamido)benzo[b]thiophene-2-carboxamide]"
0.11,0.11,0.031,"CS(=O)(=O)Nc1ccc2sc(C(=O)Nc3cc(Cl)nc(Oc4ccc(Cl)cc4)c3)cc2c1 [Example 489, N-(2-chloro-6-(4-chlorophenoxy)pyridin-4-yl)-5-(methylsulfonamido)benzo[b]thiophene-2-carboxamide]"
0.009,0.016,0.005,"CC(C)(c1ccc(Cl)cc1)c1cc(Cl)cc(NC(=O)c2cc3cc(NS(C)(=O)=O)c(Cl)cc3s2)c1 [Example 172, 6-chloro-N-(3-chloro-5-(2-(4-chlorophenyl)propan-2-yl)phenyl)-5-(methylsulfonamido)benzo[b]thiophene-2-carboxamide]"
0.038,0.017,0.009,"C=CCOc1cc(OC(F)(F)F)cc(C(C)(C)c2cc(Cl)cc(NC(=O)c3cc4cc(NS(C)(=O)=O)ccc4s3)c2)c1 [Example 78, N-(3-(2-(3-(allyloxy)-5-(trifluoromethoxy)phenyl)propan-2-yl)-5-chlorophenyl)-5-(methylsulfonamido)benzo[b]thiophene-2-carboxamide]"
0.022,0.024,0.01,"CS(=O)(=O)Nc1cc2cc(C(=O)Nc3cc(Cl)cc(Oc4ccc(Cl)cc4)c3)sc2cc1Cl [Example 449, 6-chloro-N-(3-chloro-5-(4-chlorophenoxy)phenyl)-5-(methylsulfonamido)benzo[b]thiophene-2-carboxamide]"
0.008,0.014,0.006,"CS(=O)(=O)Nc1cc2cc(C(=O)Nc3cc(Cl)cc(Oc4cccc(OC(F)(F)F)c4)c3)sc2cc1Cl [Example 479, 6-chloro-N-(3-chloro-5-(3-(trifluoromethoxy)phenoxy)phenyl)-5-(methylsulfonamido)benzo[b]thiophene-2-carboxamide]"
